{"source": "paper PMC4451856", "about": "“Identification of a Peptide from In vivo Bacteriophage Display with Homology to EGFL6: A Candidate Tumor Vasculature Ligand in Breast Cancer” (Journal of molecular biomarkers & diagnosis, 2014)", "key": {"[1]": {"system": "MDA-MB-435 human breast cancer xenograft", "type": "in vivo, SCID mice", "conditions": "2 h post-injection, intravenous", "description": "Four- to 6-week-old Severe Combined Immunodeficient (SCID) out bred mice (Taconic, Germantown, NY) was maintained in approved pathogen-free institutional housing. Animal studies were conducted as outlined in the NIH Guidelines for the Care and Use of Laboratory Animals and the Policy and Procedures for Animal Research of the Harry S. Truman Veterans Memorial Hospital. MDA-MB-435 human breast cancer xenografts (5×10^6) were established by subcutaneous injection into the flank of SCID mice. Mice were utilized when visual tumors (~1–3mm^3) formed after approximately 5 weeks. Radiolabeled, purified ^111In-DOTA-GSG-EGFL6 was diluted to 11.1 MBq in 100 µL of sterile PBS. The peptide was injected intravenously in a mouse bearing an MDA-MB-435 human breast cancer xenograft. Following injection, radiolabeled peptide was permitted to circulate for 2h, followed by euthanization by carbon dioxide. The treated mouse was imaged at the Harry S. Truman Veterans Memorial Hospital Biomolecular Imaging Center. Overnight (7h) image acquisition was performed with a Siemens Inveon Micro-SPECT/CT (Siemens, Knoxville, TN) equipped with mouse whole body 1.0 mm collimators. Data were processed with Inveon Research Workplace processing software and fan beam (Feldkamp) filtered back projection algorithms were used for reconstruction of the CT tomographic image."}, "[2]": {"test": "in vivo", "design": "species or system SCID mice", "conditions": "SCID (outbred, Taconic), mouse, iv, total radioactivity", "description": "Four- to 6-week-old Severe Combined Immunodeficient (SCID) out bred mice (Taconic, Germantown, NY) was maintained in approved pathogen-free institutional housing. Animal studies were conducted as outlined in the NIH Guidelines for the Care and Use of Laboratory Animals and the Policy and Procedures for Animal Research of the Harry S. Truman Veterans Memorial Hospital. MDA-MB-435 human breast cancer xenografts (5×10^6) were established by subcutaneous injection into the flank of SCID mice. Mice were utilized when visual tumors (~1–3mm^3) formed after approximately 5 weeks.\nDOTA-EGFL6 peptide was radiolabeled with ^111In and purified peptide was prepared at 1.85 MBq/mL in sterile PBS. Three mice bearing MDA-MB-435 tumors were intravenously injected with ^111In-DOTA-EGFL6 and sacrificed at 2 h. Organs and tissues pertinent to tumor uptake and clearance were excised, weighed, and counted by gamma counter. Percentage of injected dose per gram (%ID/g) of tissue was reported to normalize uptake by tissue mass."}, "[3]": {"system": "HEK-293 cells", "test": "111In-DOTA-EGFL6 cell binding", "type": "cell-based, human", "conditions": "37°C, 1 h, gamma counter, mean ± SD of 4 samples", "description": "(§1) DOTA-EGFL6 was diluted to 1 mg/mL in water and incubated with 0.1 M ammonium acetate (pH 5) and 18.5 MBq of ^111In at 80°C for 1 h. Reactions were quenched by addition of 10 µM EDTA. Radiolabeled peptide was purified by reverse phase HPLC using a linear gradient of acetonitrile plus 0.1% trifluoroacetic acid from 5–95% over 35 minutes. Acetonitrile was evaporated by nitrogen gas flow, and peptide was d iluted to appropriate concentration using sterile PBS.\n(§2) MDA-MB-435, MDA-MB-468, SK-BR-3 and HEK-293 cells were diluted to 2×10^6 cells/mL in Dulbelco’s Modified Eagle Medium (DMEM) with 0.1 mg/mL BSA. ^111In-DOTA-EGFL6 was diluted to 1×10^7 CPM/mL in DMEM plus 0.1% BSA and 100 µL of peptide was added to 200 µL of cells and incubated at 37°C for 1 h. Cells were washed three times with ice-cold PBS with 1% BSA and counted via gamma counter."}, "[4]": {"system": "MDA-MB-468 cells", "test": "111In-DOTA-EGFL6 cell binding", "type": "cell-based, human", "conditions": "37°C, 1 h, gamma counter, mean ± SD of 4 samples", "description": "as §1, §2"}, "[5]": {"system": "SK-BR-3 cells", "test": "111In-DOTA-EGFL6 cell binding", "type": "cell-based, human", "conditions": "37°C, 1 h, gamma counter, mean ± SD of 4 samples", "description": "as §1, §2"}, "[6]": {"system": "MDA-MB-435 cells", "test": "111In-DOTA-EGFL6 cell binding", "type": "cell-based, human", "conditions": "37°C, 1 h, gamma counter, mean ± SD of 4 samples", "description": "as §1, §2"}, "[7]": {"system": "MDA-MB-435 cells", "conditions": "ref Previous work (reference number not given); cited from earlier work"}, "[8]": {"system": "HEK-293 cells", "test": "Biotinylated peptide fluorescent microscopy", "type": "cell-based, human", "conditions": "fixed HEK-293 cells, 10 µM biotinylated peptide in PBS, 1 h room temperature, Neutravidin Texas Red detection", "description": "(§3) All cell lines were grown to 80% confluency and fixed with 4% paraformaldehyde. Cells were dried onto microscope slides overnight followed by rehydration with PBS. Slides were blocked with 5% BSA in PBS for 2 h at room temperature. Biotinylated EGFL6 peptide was diluted to 10 µM in PBS and 100 µL was added to each cell sample for incubation at room temperature for 1 h. Slides were washed 3 times with 0.1% TBST and cells were incubated with Neutravidin Texas Red (Life Technologies, Rockville, MD) diluted to 5 µg/mL in 0.1% TBST for 1 h at room temperature. Washing was performed in the same manner and cells were visualized by an epifluorescent Nikon T1-SM inverted microscope (Nikon, Melville, NY)."}, "[9]": {"system": "MDA-MB-468 cells", "test": "Biotinylated peptide fluorescent microscopy", "type": "cell-based, human", "conditions": "fixed MDA-MB-468 cells, 10 µM biotinylated peptide in PBS, 1 h room temperature, Neutravidin Texas Red detection", "description": "as §3"}, "[10]": {"system": "MDA-MB-435 cells", "test": "Biotinylated peptide fluorescent microscopy", "type": "cell-based, human", "conditions": "fixed MDA-MB-435 cells, 10 µM biotinylated peptide in PBS, 1 h room temperature, Neutravidin Texas Red detection", "description": "as §3"}, "[11]": {"system": "SK-BR-3 cells", "test": "Biotinylated peptide fluorescent microscopy", "type": "cell-based, human", "conditions": "fixed SK-BR-3 cells, 10 µM biotinylated peptide in PBS, 1 h room temperature, Neutravidin Texas Red detection", "description": "as §3"}}, "note": "Peptide text beside a SMILES is read from it. * marks the point of attachment. DOTA = O=C(O)CN1CCN(CC(=O)O)CCN(CC(=O)*)CCN(CC(=O)O)CC1"}
{"molecule": "C[C@H](NC(=O)[C@H](Cc1c[nH]c2ccccc12)NC(=O)[C@H](CCCCN)NC(=O)[C@@H](NC(=O)CNC(=O)CNC(=O)[C@H](CO)NC(=O)CNC(=O)CN1CCN(CC(=O)O)CCN(CC(=O)O)CCN(CC(=O)O)CC1)[C@@H](C)O)C(=O)N[C@@H](CS)C(=O)N[C@@H](CS)C(=O)N[C@@H](Cc1ccc(O)cc1)C(=O)NCC(=O)N[C@@H](Cc1c[nH]c2ccccc12)C(=O)N[C@@H](CCCNC(=N)N)C(=O)N[C@@H](CC(N)=O)C(=O)N[C@@H](CO)C(=O)N[C@@H](CO)C(=O)O", "note": "[^111In-DOTA-EGFL6, metal not drawn] ({DOTA}-GSGGTKWACCYGWRNSS-OH; N-terminus and C-terminus assumed)", "values": [{"measurement": "Radiolabel at interface between xenograft and muscle (vasculature-like binding) in SPECT/CT image", "setting": "[1]", "result": "strikingly high concentration of radiolabel"}, {"measurement": "Tumor uptake in SPECT/CT image", "setting": "[1]; 11.1 MBq, one mouse", "result": "low tumor uptake"}, {"measurement": "tissue uptake at 2 h", "setting": "[2]; Blood retention", "result": "1.3 ± 0.51", "unit": "%ID/g"}, {"measurement": "tissue uptake at 2 h", "setting": "[2]; Kidney retention", "result": "28.6 ± 4.24", "unit": "%ID/g"}, {"measurement": "tissue uptake at 2 h", "setting": "[2]; Non-target organ accumulation, all organs measured except the kidneys", "result": "< 1", "unit": "%ID/g"}, {"measurement": "tissue to tissue ratio at 2 h", "setting": "[2]; Tumor to blood ratio", "result": 0.27}, {"measurement": "tissue to tissue ratio at 2 h", "setting": "[2]; Tumor to muscle ratio", "result": 2.7}, {"measurement": "tissue uptake at 2 h", "setting": "[2]; Tumor uptake", "result": "0.36 ± 0.08", "unit": "%ID/g"}, {"measurement": "Peptide binding, % of total peptide added", "setting": "[3]", "result": "5.4 ± 0.5", "unit": "%"}, {"measurement": "Peptide binding, % of total peptide added", "setting": "[4]", "result": "10.5% ± 2.7"}, {"measurement": "Peptide binding, % of total peptide added", "setting": "[5]", "result": "4.7 ± 0.2", "unit": "%"}, {"measurement": "Peptide binding, % of total peptide added", "setting": "[6]", "result": "12.3 ± 1.0", "unit": "%"}]}
{"molecule": "GTKSKCCYSLRRSS [3-G03, phage selected peptide with 64% homology to EGFL6]", "values": [{"measurement": "Binding to MDA-MB-435 cells in vitro", "setting": "[7]", "result": "bound to MDA-MB-435 cells"}]}
{"molecule": "GTKWACCYGWRNSS [Biotinylated EGFL6 peptide, EGFL6 peptide with N-terminal GSG spacer conjugated at the N-terminus with biotin]", "values": [{"measurement": "Peptide binding by fluorescent microscopy", "setting": "[8]", "result": "no binding"}, {"measurement": "Peptide binding by fluorescent microscopy", "setting": "[9]", "result": "bound strongly"}, {"measurement": "Peptide binding by fluorescent microscopy", "setting": "[10]", "result": "bound strongly"}]}
{"molecule": "GTKWACCYGWRNSS [EGFL6 peptide]", "values": [{"measurement": "Peptide binding by fluorescent microscopy", "setting": "[11]", "result": "undetectable"}]}
